In assay [1] the target is T1, Ribosyldihydronicotinamide dehydrogenase [quinone] (Homo sapiens, UniProt P16083).
T1 sequence (P16083 whole entry): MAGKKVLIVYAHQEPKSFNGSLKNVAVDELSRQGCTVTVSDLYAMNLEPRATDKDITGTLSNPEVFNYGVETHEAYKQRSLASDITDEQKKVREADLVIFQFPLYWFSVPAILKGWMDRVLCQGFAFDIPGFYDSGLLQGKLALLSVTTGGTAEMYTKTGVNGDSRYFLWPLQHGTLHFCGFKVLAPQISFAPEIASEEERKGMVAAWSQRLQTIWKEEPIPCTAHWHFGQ
Nature of the assay: Fluorescence Titration Assay. The procedure: To assess direct binding of inhibitors to oxidized NQO2 (NQO2ox), fluorescence quenching of FAD was monitored with an excitation wavelength of 350 nm and an emission wavelength of 430 nm. NQO2 (775 or 38.75 nM) was titrated with the indicated concentrations of TBB, TBBz, and DMAT.

Assay [2] deals with T1, Ribosyldihydronicotinamide dehydrogenase [quinone]. Kind of assay: Inhibition of Steady-State Catalysis Assay. The procedure: To determine the IC50 value of each inhibitor, reactions were initiated by addition of 154 pM NQO2 to a reaction buffer containing 150 μM SCDP and 5 μM menadione with TBB (0.625−640 μM), TBBz (2.5−640 nM), or DMAT (2.5−640 nM).

What is called Kd is the equilibrium constant for the complex coming apart. A higher Kd goes with lower affinity. For orientation: IC50 means the concentration needed to halve the response being measured. Lower therefore signals inhibition by little substance. Consider `Brc1c(Br)c(Br)c2[nH]nnc2c1Br`, for which the equilibrium dissociation constant (Kd) in assay [1] stood at 7110 nM. Further, the concentration for half-maximal inhibition (IC50) in assay [2] came out at 12800 nM.
The corresponding values for `CN(C)c1nc2c(Br)c(Br)c(Br)c(Br)c2[nH]1` [2-(dimethylamino)-4,5,6,7-tetrabromo-1H-benzimidazole] are 36.4 nM and 484 nM.
The like results for `Brc1c(Br)c(Br)c2[nH]cnc2c1Br` [4,5,6,7-tetrabromo-1H-benzimidazole] were, in that order, 18.1 nM and 79.4 nM.

The record behind these values is BindingDB's records for doi:10.1021/bi500959t (University of Western Ontario, 2015).
